A word on the IC50: it is the point on the concentration scale where inhibition reaches its midpoint. Read a low IC50 as inhibition by little substance.

We go through 25 compounds from patent publication US20240368181A1, “QUINOXALINE DERIVATIVES AND USES THEREOF” (Black Diamond Therapeutics, Inc., priority 2021, published 2024).

SMILES strings stand for the structures.

Holding throughout (format): cell-based
Test [1] concerns UM-UC-14 (FGFR3-S249C) cells. Briefly: Cell proliferation assay (CellTiterGlo), UM-UC-14 cells. As to conditions: UMUC14, 72 h, inhibition of cell growth, intracellular ATP (CellTiterGlo). From the text: (§1) The following is a non-limiting example that describes a cell proliferation assay used to determine the biological activity of the compounds of the present disclosure. More specifically, the assay as used to assess the ability of the compounds to inhibit cell proliferation.
(§2) Briefly, SNU-16 (FGFR2-amplification) cells, were resuspended at 18,520c/ml mL in RPMI containing 10% Heat Inactivated FBS, 1% L-glutamine and dispensed in duplicate (463c/well) into 384 well plates. UM-UC-14 (FGFR3-S249C) cells were resuspended at 40.000c/ml mL in RPMI containing 10% Heat Inactivated FBS, 1% L-glutamine and dispensed in duplicate (1000c/well) into 384 well plates. DMS-114 (FGFR1 overexpression) cells and were resuspended at 40,000c/ml mL in RPMI containing 10% Heat Inactivated FBS, 1% L-glutamine and dispensed in duplicate (1000c/well) into 384 well plates. RT-112 (FGFR3-Tacc3 fusion) cells were resuspended at 40,000c/ml mL in RPMI containing 10% Heat Inactivated FBS, 1% L-glutamine and dispensed in duplicate (1000c/well) into 384 well plates. To determine the effect of the compounds of the present disclosure on cell proliferation, SNU-16, UM-UC-14, DMS-114 and RT112 cells were incubated for 72 hours in the presence of vehicle control (DMSO) or a compound of the present disclosure at varying concentrations. Inhibition of cell growth was subsequently determined by luminescent quantification (Envision by Perkin Elmer) of intracellular ATP content using CellTiterGlo (Promega), according to the protocol provided by the manufacturer. To determine the IC50 values, the vehicle-treated cells were normalized as viable cells and analyzed using the CDD Vault software (Collaborative Drug Discovery, Burlingame, CA).
A general note: In ATP-based viability assays light output follows the ATP content of the culture.

Test [2] has as its system DMS-114 (FGFR1 overexpression) cells. Briefly: Cell proliferation assay (CellTiterGlo), DMS-114 cells. Conditions: Homo sapiens, 72 hours, inhibition of cell growth, intracellular ATP (CellTiterGlo).
From the text: as §1, §2

Test [3] concerns RT-112 (FGFR3-Tacc3 fusion) cells. Briefly: Cell proliferation assay (CellTiterGlo), RT-112 cells. Conditions: Homo sapiens, RT-112, 72 h, RT112 cells, inhibition of cell growth, intracellular ATP (CellTiterGlo).
From the text: as §1, §2

Test [4] concerns SNU-16 (FGFR2-amplification) cells. Briefly: Cell proliferation assay (CellTiterGlo), SNU-16 cells. As to conditions: Homo sapiens, SNU-16, 72 h, inhibition of cell growth, intracellular ATP (CellTiterGlo).
From the text: as §1, §2

For `Cc1nc2ccc(Oc3ccc4ncc(-c5cnn(CC6CCOC6)c5)nc4c3Cl)cc2[nH]1` (stereo not shown) [Compound 2], the half-inhibitory concentration (IC50) was 20 to 100 nM in test [1], ≥ 400 nM in test [2], 20 to 100 nM in test [3] and 20 to 100 nM in test [4].

Turning to `COCCN1CCC(Cn2cc(-c3cnc4ccc(Oc5ccc6nc(C)[nH]c6c5)c(Cl)c4n3)cn2)CC1` [Compound 30], the IC50 in test [1] is < 20 nM; in test [2], 100 to 400 nM; in test [3], < 20 nM; in test [4], < 20 nM.

Consider `Cc1nc2ccc(Oc3ccc4ncc(-c5cnn(CC6CCN(S(C)(=O)=O)CC6)c5)nc4c3Cl)cc2[nH]1` [Compound 43], for which the IC50 in test [1] is 20 to 100 nM; in test [2], ≥ 400 nM; in test [3] it was 20 to 100 nM; in test [4] it was 20 to 100 nM.

As for `Cc1nc2ccc(Oc3ccc4ncc(-c5cnn(CC6CCN(S(=O)(=O)C(C)C)CC6)c5)nc4c3Cl)cc2[nH]1` [Compound 40], the IC50 is 20 to 100 nM in test [1], ≥ 400 nM in test [2], 20 to 100 nM in test [3] and 20 to 100 nM in test [4].

With `Cc1ccc2ccc(Oc3ccc4ncc(-c5cnn(CC6CCN(C)CC6)c5)nc4c3Cl)cc2n1` [Compound 65], the half-maximal inhibitory concentration (IC50) in test [1], in test [2], in test [3] and in test [4] was ≥ 400 nM in each case.

Regarding `Cc1nc2ccc(Oc3ccc4ncc(-c5cnn(CC6CCN(C)CC6)c5)nc4c3C)cc2[nH]1` [Compound 45], the IC50 fell in the range of 20 to 100 nM in test [1], 100 to 400 nM in test [2], 20 to 100 nM in test [3] and 20 to 100 nM in test [4].

Take `Cc1nc2ccc(Oc3ccc4ncc(-c5cnn(CC6CCN(S(=O)(=O)CCO)CC6)c5)nc4c3Cl)cc2[nH]1` [Compound 13]: the IC50 is 20 to 100 nM in test [1], ≥ 400 nM in test [2], 20 to 100 nM in test [3] and 20 to 100 nM in test [4].

As to `Cc1nc2ccc(Oc3ccc4ncc(-c5cnn(CC6CCN(C)C(=O)C6)c5)nc4c3Cl)cc2[nH]1` (stereo not shown) [Compound 20], the IC50 in test [1] is 20 to 100 nM; in test [2], ≥ 400 nM; in test [3] it was 20 to 100 nM; in test [4], 20 to 100 nM.

In the case of `Cc1nc2ccc(Oc3ccc4ncc(-c5cnn(CC6CCN(S(=O)(=O)C(F)F)CC6)c5)nc4c3Cl)cc2[nH]1` [Compound 12], the IC50 fell in the range of 20 to 100 nM in test [1], 100 to 400 nM in test [2], 20 to 100 nM in test [3] and 20 to 100 nM in test [4].

Regarding `Cc1nc2ccc(Oc3ccc4ncc(-c5cnn(CC6CCNC6)c5)nc4c3Cl)cc2[nH]1` (stereo not shown) [Compound 10], the IC50 in test [1] is 100 to 400 nM; in test [2] it was ≥ 400 nM; in test [3], 20 to 100 nM; in test [4] it was 20 to 100 nM.

Turning to `Cc1nc2c(C#N)cc(Oc3ccc4ncc(-c5cnn(CC6CCOCC6)c5)nc4c3)cc2[nH]1` [Compound 60], the IC50 in test [1], in test [2], in test [3] and in test [4] was ≥ 400 nM each time.

For the compound `Cc1nc2ccc(Oc3ccc4ncc(-c5cnn(CC6(O)CC6)c5)nc4c3Cl)cc2[nH]1` [Compound 67], the IC50 in test [1] is 20 to 100 nM; in test [2] it was ≥ 400 nM; in test [3], 20 to 100 nM; in test [4], 20 to 100 nM.

`Cc1nc2ccc(Oc3ccc4ncc(-c5cn(CC6CCN(C)CC6)nc5C)nc4c3Cl)cc2[nH]1` [Compound 32]: the IC50 in test [1] is 20 to 100 nM; in test [2] it was ≥ 400 nM; in test [3], 20 to 100 nM; in test [4], 20 to 100 nM.

On to `Cc1nc2ccc(Oc3ccc4ncc(-c5cnn(CC6CCN(CCO)CC6)c5)nc4c3Cl)cc2[nH]1` [Compound 23], for which the IC50 in test [1] was < 20 nM; in test [2] it was 100 to 400 nM; in test [3] it was < 20 nM; in test [4], < 20 nM.

Regarding `Cc1nc2ccc(Oc3ccc4ncc(-c5cnn(CCO)c5)nc4c3Cl)cc2[nH]1` [Compound 15], the IC50 in test [1] was 20 to 100 nM; in test [2] it was ≥ 400 nM; in test [3] it was 20 to 100 nM; in test [4], 20 to 100 nM.

Regarding `Cc1nc2ccc(Oc3ccc4ncc(-c5cnn(CC6CCC(F)(F)CC6)c5)nc4c3Cl)cc2[nH]1` [Compound 9], the IC50 was 20 to 100 nM in test [1], ≥ 400 nM in test [2], 20 to 100 nM in test [3] and 20 to 100 nM in test [4].

As for `Cc1nc2ccc(Oc3ccc4ncc(-c5cc(CC6CCN(C)CC6)no5)nc4c3Cl)cc2[nH]1` [Compound 64], the IC50 in test [1] was 100 to 400 nM; in test [2], ≥ 400 nM; in test [3], 100 to 400 nM; in test [4], 100 to 400 nM.

As to `Cc1nc2ccc(Oc3ccc4ncc(-c5cnn(CC6CCN(C)C(C)(C)C6)c5)nc4c3Cl)cc2[nH]1` (stereo not shown) [Compound 3], the IC50 is 20 to 100 nM in test [1], 100 to 400 nM in test [2], 20 to 100 nM in test [3] and 20 to 100 nM in test [4].

Turning to `Cc1nc2ccc(Oc3ccc4ncc(-c5cnn(CC6CCN(C(=O)C(F)(F)F)CC6)c5)nc4c3Cl)cc2[nH]1` [Compound 18], the IC50 in test [1] is 20 to 100 nM; in test [2], ≥ 400 nM; in test [3], 20 to 100 nM; in test [4], 20 to 100 nM.

`Cc1nc2ccc(Oc3cc4nc(-c5cnn(CC6CCOCC6)c5)cnc4cc3Cl)cc2[nH]1` [Compound 48]: the IC50 in test [1], in test [2], in test [3] and in test [4] was ≥ 400 nM in each case.

Turning to `COc1cc(Oc2ccc3ncc(-c4cnn(CC5CCOCC5)c4)nc3c2)cc2[nH]c(C)nc12` [Compound 61], the IC50 in test [1], in test [2], in test [3] and in test [4] was ≥ 400 nM throughout.

As for `COc1cc(Oc2ccc3ncc(-c4cnn(CC5CCN(C)CC5)c4)nc3c2Cl)cc2[nH]c(C)nc12` [Compound 46], the IC50 in test [1] is ≥ 400 nM; in test [2], ≥ 400 nM; in test [3], 100 to 400 nM; in test [4], 100 to 400 nM.

For `Cc1nc2ccc(Oc3ccc4ncc(-c5cnn(C)c5)nc4c3Cl)cc2[nH]1` [Compound 19], the IC50 in test [1] is 100 to 400 nM; in test [2], ≥ 400 nM; in test [3] it was 20 to 100 nM; in test [4], 100 to 400 nM.

Take `Cc1nc2ccc(Oc3ccc4ncc(-c5cnn(CC6CCN(C7COC7)CC6)c5)nc4c3Cl)cc2[nH]1` [Compound 35]: the IC50 in test [1] was 20 to 100 nM; in test [2] it was ≥ 400 nM; in test [3] it was < 20 nM; in test [4] it was < 20 nM.

In the case of `Cc1nc2ccc(Oc3ccc4ncc(-c5cnn(CC#N)c5)nc4c3Cl)cc2[nH]1` [Compound 6], the IC50 in test [1] is 100 to 400 nM; in test [2] it was ≥ 400 nM; in test [3], 20 to 100 nM; in test [4], 20 to 100 nM.
